Experimental data from patent publication US8658633B2, “Methods and compositions for treating conditions of the eye” (Massachusetts Eye and Ear Infirmary, priority 2006, dated 2014).

Key:
[1] = system: laser-induced CNV; test: Fluorescein angiography grading of leakage and CNV closure in the rat model of laser-induced CNV; format: in vivo, Brown Norway rats
Description: (§1) Briefly, CNV membranes were induced in Brown-Norway rats using an Argon/Dye laser while either 17AAG at a total dose of approximately 2 mg or the vehicle (DMSO) was continuously administered. Verterporfin PDT was performed 14 days after CNV induction at a verterporfin dose of 3 mg/m^2, an irradiance of 600 mW/cm^2, and a fluence of 25 J/cm^2. Choroidal neovasculature closure on fluorescein angiograms was assessed 24 hours and 7 days after PDT in a masked fashion using grading standards. Retinal levels of p42/44 MAPK, HIF-1a, NF-kB, VEGF, and endostatin were assessed with a modified enzyme-linked immunoabsorbant assay (“ELISA”) method. […] The combination of 17-allylamino-17-demethoxygeldanamycin treatment and PDT treatment was also synergistic with respect to increased endostatin levels.
All experiments adhered to the Association for Research in Vision and Ophthalmology Statement for the Use of Animals in Ophthalmic and Vision Research and the guidelines established by the Animal Care Committee of the Massachusetts Eye and Ear Infirmary. Brown Norway rats (Charles River Laboratory, Wilmington, Mass.) were anesthetized via an intramuscular injection of 50 mg/kg of ketamine hydrochloride and 10 mg/kg of xylazine. Pupils were dilated with a topical application of 5% phenylephrine and 0.8% tropicamide. […]
Fluorescein angiography (“FA”) was performed 14 days after the initial laser treatment using a digital fundus camera system (model TRC 501A Topcon, Paramus, N.J.) and standard fluorescein filters to determine if CNV induction was successful. […] All angiograms were evaluated in masked fashion by two independent retina specialists using grading standards regarding severity of CNV (baseline FAs) and CNV closure (24 hours FAs).
PDT with verteporfin was performed on experimental CNV. […] The body surface area of each rat was determined based on their weight according to a nomogram developed by Gilpin (Gilpin et al. (1996) Burns 22(8): 607-1 1). […]

[2] = system: endostatin; test: ELISA for retinal endostatin levels in laser-induced CNV rats; format: in vivo, Brown Norway rats
Description: (§2) Briefly, CNV membranes were induced in Brown-Norway rats using an Argon/Dye laser while either 17AAG at a total dose of approximately 2 mg or the vehicle (DMSO) was continuously administered. Verterporfin PDT was performed 14 days after CNV induction at a verterporfin dose of 3 mg/m^2, an irradiance of 600 mW/cm^2, and a fluence of 25 J/cm^2. Choroidal neovasculature closure on fluorescein angiograms was assessed 24 hours and 7 days after PDT in a masked fashion using grading standards. Retinal levels of p42/44 MAPK, HIF-1a, NF-kB, VEGF, and endostatin were assessed with a modified enzyme-linked immunoabsorbant assay (“ELISA”) method. […]
Each retina was homogenized in 100 μl of solution consisting of 20 mM imidazole hydrochloride, 100 mM KCl, 1 mM MgCl, 1 mM EGTA, 1% Triton, 10 mM NaF, 1 mM sodium molybdynate and 1 mM EDTA supplemented with a cocktail of protease inhibitors (Complete, Roche, Basel, Switzerland) prior to use. Samples were cleared by centrifugation for 10 min. at 13,000 rpm and assessed for protein concentration with the BCA assay (Micro BCA™ Protein Assay Kit, Pierce Co., Rockford, Ill.). […] The reaction was stopped, and the absorption was measured in an ELISA reader at 450 nm. […] The tissue sample concentration was calculated from a standard curve and corrected for protein concentration.

[3] = system: HIF-1a; test: Quantification of retinal HIF-1a activation (Trans-AM transcription factor assay on retinal nuclear extract); format: in vivo, Brown Norway rats
Description: as §2
(§3) NF-kB and HIF-1a activation was analyzed using the Trans-AM NF-kB p65/NF-kB p50 Transcription Factor Assay Kit (Active Motif North America, Carlsbad, Calif.) according to the manufacturer's instructions. Briefly, two micrograms of a retinal nuclear extract were incubated with an oligonucleotide containing the consensus binding element for each of the transcription factors analyzed bound to a 96-well plate. […] After washes, the plates were subsequently incubated with a secondary antibody conjugated to horseradish peroxidase (1:1000), and the peroxidase reaction was quantified at 450 nm with a reference wavelength of 655 nm. […]

[4] = system: NF-kB; test: Quantification of retinal NF-kB activation (Trans-AM transcription factor assay on retinal nuclear extract); format: in vivo, Brown Norway rats
Description: as §2, §3

[5] = system: p42/44 MAPK; test: Retinal p42/44 MAPK activation (modified ELISA) in laser-induced CNV rats; format: in vivo, Brown Norway rats
Description: as §1
To achieve steady drug levels in the circulation of animals, 17AAG (Calbiochem EMD Biosciences, San Diego, Calif.) or the vehicle (DMSO, Sigma, St. Louis, Mo.) was administered by slow intraperitoneal release from osmotic pumps (Alzet, Cupertino, Calif.) instead of repeated intraperitoneal injections. Immediately following the induction of choroidal neovascularization, osmotic pumps (Alzet, Cupertino, Calif.) were implanted as previously described (Poulaki et al. (2002) J. Clin. Invest. 109(6): 805-15). […]

[6] = set-up: unit not given here; settings: typical value, general description; cited from earlier work

## C=CCNC1=C2C[C@@H](C)C[C@H](OC)[C@H](O)[C@@H](C)/C=C(\C)[C@H](OC(N)=O)[C@@H](OC)/C=C\C=C(/C)C(=O)NC(=CC1=O)C2=O [17AAG, 17-allylamino-17-demethoxygeldanamycin]
[1]; grade IIB lesions, 17AAG in combination with verteporfin PDT, DMSO+PDT control 6 out of 17
  lesions closed one week after PDT treatment: 12 out of the 14
[1]; grade IIB lesions, 17AAG in combination with verteporfin PDT, DMSO+PDT control 9 out of 17
  lesions closed one day after PDT treatment: 12 out of the 14
[1]; two weeks following CNV induction, 17AAG approx. 2 mg by i.p. osmotic pump, without PDT, P>0.05 vs DMSO (32 out of 53)
  lesions showing the highest grade (IIB) of leakage: 26 out of 47
[2]; 17AAG and PDT treated animals, 1 day after PDT, statistically significant vs laser treated 15.7±2.8
  retinal levels of endostatin: 258±6 O.D./μg tissue
[2]; 17AAG and laser treated animals without PDT, P>0.05 vs laser treated 15.7±2.8
  retinal levels of endostatin: 32.34±6.11 O.D./μg tissue
[3]; 17AAG and PDT treated animals, 1 day after PDT, PDT without 17AAG 1.69±0.38
  retinal levels of HIF-1a activation: 0.946±0.06 O.D./μg tissue
[3]; 17AAG and laser treated animals without PDT, P>0.05 vs laser treated 1.06±0.1
  retinal levels of HIF-1a activation: 1.064±0.136 O.D./μg tissue
[4]; 17AAG and PDT treated animals, 1 day after PDT, PDT without 17AAG 13.7±0.3
  retinal levels of NF-kB activation: 5.9±0.045 O.D./μg tissue
[4]; 17AAG and laser treated animals without PDT, P>0.05 vs laser treated 10.12±0.74
  retinal levels of NF-kB activation: 9.54±1.47 O.D./μg tissue
[5]; 17AAG and PDT treated animals, 1 day after PDT, PDT without 17AAG 923±45
  retinal levels of p42/44 MAPK activation: 417±6 O.D./μg tissue
[5]; 17AAG and laser treated animals without PDT, P>0.05 vs laser treated 603±1
  retinal levels of p42/44 MAPK activation: 560±22 O.D./μg tissue

## C=Cc1c(C)c2cc3nc(c(CC(=O)N[C@@H](CC(=O)O)C(=O)O)c4[nH]c(cc5nc(cc1[nH]2)C(C)=C5CC)c(C)c4C(=O)O)[C@@H](CCC(=O)O)[C@@H]3C [N-aspartyl chlorin e6]
[6]
  time the photosensitizer persists in the target neovasculature: about twenty

## CC(=O)[O-].CC(=O)[O-].CCc1c(CC)c2cc3nc(cnc4cc(OCCOCCOCCOC)c(OCCOCCOCCOC)cc4ncc4nc(cc1[n-]2)C(CCCO)=C4C)C(C)=C3CCCO.O.[Lu+3] [lutetium texaphyrin]
[6]
  time the photosensitizer persists in the target neovasculature: about twenty

## benzoporphyrin derivative
[6]
  time the photosensitizer persists in the target neovasculature: about fifty
